Data: ChEMBL document CHEMBL1155074, “Is quantum mechanics necessary for predicting binding free energy?” (J Med Chem, 2008)
Square brackets hold non-standard residues; d marks the D form. Peptide text beside a SMILES is read from it. * marks the point of attachment. Phe(4-guanidino) = N=C(N)Nc1ccc(C[C@H](N)C(=O)O)cc1; Phe(4-Me) = Cc1ccc(C[C@H](N)C(=O)O)cc1; Phg = N[C@H](C(=O)O)c1ccccc1; Nle = CCCC[C@H](N)C(=O)O; Cbz = O=C(OCc1ccccc1)*; Bz = O=C(c1ccccc1)*; Bn = c1ccc(C*)cc1

system: not listed separately; assay: Inhibition of West Nile virus NS3 protease

SMILES | IC50 [µM]
CCCC[C@H](NCc1ccccc1)C(=O)N[C@@H](CCCCN)C(=O)N[C@@H](CCCNC(=N)N)C(=O)N[C@H](C=O)Cc1ccc(C#N)cc1 | 62
CCCC[C@H](NCc1ccccc1)C(=O)N[C@@H](CCCCN)C(=O)N[C@@H](CCCNC(=N)N)C(=O)N[C@H](C=O)Cc1c[nH]c2ccccc12 | 10
CC(=O)N[C@@H](CCCCN)C(=O)N[C@@H](CCCNC(=N)N)C(=O)N[C@H](C=O)CCCNC(=N)N (Ac-Lys-Arg-Arg-aldehyde) | 0.5
CC(=O)N[C@@H](CCCCN)C(=O)N[C@@H](CCCCN)C(=O)N[C@H](C=O)CCCNC(=N)N (Ac-Lys-Lys-Arg-aldehyde) | 0.4
NCCCC[C@H](NC(=O)[C@H](Cc1ccccc1)NC(=O)c1ccccc1)C(=O)N[C@@H](CCCN=C(N)N)C(=O)N[C@H](C=O)CCCN=C(N)N (Bz-FKRR-aldehyde) | 1.2
Cc1ccc(C[C@@H](C=O)NC(=O)[C@H](CCCCNC(=O)OCc2ccccc2)NC(=O)[C@H](CCCCN)NC(=O)c2ccccc2)cc1 (Bz-Lys-Lys(Cbz)-[Phe(4-Me)]-aldehyde) | 43.3
Cc1ccc(C[C@@H](C=O)NC(=O)[C@H](Cc2ccc(OCc3ccccc3)cc2)NC(=O)c2ccccc2)cc1 (Bz-Tyr(Bn)-[Phe(4-Me)]-aldehyde) | 12.7
CCCC[C@H](NC(=O)c1ccccc1)C(=O)N[C@@H](Cc1ccccc1)C(=O)N[C@@H](CCCNC(=N)N)C(=O)N[C@H](C=O)CCCNC(=N)N (Bz-[Nle]FRR-aldehyde) | 4.2
CCCC[C@H](NC(=O)c1ccccc1)C(=O)N[C@@H](CCCCN)C(=O)N[C@@H](CCCNC(=N)N)C(=O)N[C@H](C=O)Cc1ccc(NC(=N)N)cc1 (Bz-[Nle]KR[Phe(4-guanidino)]-aldehyde) | 11.8
CCCC[C@H](NC(=O)c1ccccc1)C(=O)N[C@@H](CCCCN)C(=O)N[C@@H](CCCNC(=N)N)C(=O)N[C@H](C=O)c1ccccc1 (Bz-[Nle]KR[Phg]-aldehyde) | 90.9

The next lines start with the values.

IC50 [µM] | SMILES
1 | N=C(N)NCCC[C@@H](C=O)NC(=O)[C@H](CCCNC(=N)N)NC(=O)[C@H](CCCCN)Nc1cccnc1
0.7 | C[C@H](NC(=O)c1ccccc1)C(=O)N[C@@H](CCCCN)C(=O)N[C@@H](CCCNC(=N)N)C(=O)N[C@H](C=O)CCCNC(=N)N (Bz-AKRR-aldehyde)
3.9 | N=C(N)NCCC[C@@H](C=O)NC(=O)[C@H](CCCNC(=N)N)NC(=O)c1ccccc1 (Bz-Arg-Arg-aldehyde)
57.5 | N=C(N)NCCC[C@H](NC(=O)c1ccccc1)C(=O)N[C@H](C=O)CCCCN (Bz-Arg-Lys-aldehyde)
436 | N=C(N)NCCC[C@@H](C=O)NC(=O)[C@H](CCCCNC(=O)OCc1ccccc1)NC(=O)c1ccccc1 (Bz-Lys(Cbz)-Arg-aldehyde)
1.5 | N=C(N)NCCC[C@@H](C=O)NC(=O)[C@H](CCCNC(=N)N)NC(=O)[C@H](CCCCN)NC(=O)c1ccccc1 (Bz-Lys-Arg-Arg-aldehyde)
71.1 | N=C(N)NCCC[C@H](NC(=O)[C@H](CCCCN)NC(=O)c1ccccc1)C(=O)N[C@H](C=O)Cc1ccccc1 (Bz-Lys-Arg-Phe-aldehyde)
11.8 | N=C(N)NCCC[C@H](NC(=O)[C@H](CCCCN)NC(=O)c1ccccc1)C(=O)N[C@H](C=O)Cc1ccc(OCc2ccccc2)cc1 (Bz-Lys-Arg-Tyr(Bn)-aldehyde)
14.6 | N=C(N)NCCC[C@H](NC(=O)[C@H](CCCCN)NC(=O)c1ccccc1)C(=O)N[C@H](C=O)Cc1ccc(O)cc1 (Bz-Lys-Arg-Tyr-aldehyde)
17.7 | Cc1ccc(C[C@@H](C=O)NC(=O)[C@H](CCCNC(=N)N)NC(=O)[C@H](CCCCN)NC(=O)c2ccccc2)cc1 (Bz-Lys-Arg-[Phe(4-Me)]-aldehyde)
1.4 | N=C(N)NCCC[C@@H](C=O)NC(=O)[C@H](CCCCN)NC(=O)c1ccccc1 (Bz-Lys-Arg-aldehyde)
71.8 | N=C(N)NCCC[C@@H](C=O)NC(=O)[C@H](CC(N)=O)NC(=O)[C@H](CCCCN)NC(=O)c1ccccc1 (Bz-Lys-Asn-Arg-aldehyde)
194 | Cc1ccc(C[C@H](NC(=O)[C@H](CCCCN)NC(=O)c2ccccc2)C(=O)N[C@H](C=O)CCCNC(=N)N)cc1 (Bz-Lys-[Phe(4-Me)]-Arg-aldehyde)
3.8 | CCCC[C@H](NC(=O)c1ccccc1)C(=O)N[C@@H](C)C(=O)N[C@@H](CCCNC(=N)N)C(=O)N[C@H](C=O)CCCNC(=N)N (Bz-[Nle]ARR-aldehyde)
108 | CCCC[C@H](NC(=O)c1ccccc1)C(=O)N[C@@H](CCCCN)C(=O)N[C@@H](Cc1ccccc1)C(=O)N[C@H](C=O)CCCNC(=N)N (Bz-[Nle]KFR-aldehyde)
1.9 | CCCC[C@H](NC(=O)c1ccccc1)C(=O)N[C@@H](CCCCN)C(=O)N[C@@H](CCCCN)C(=O)N[C@H](C=O)CCCNC(=N)N (Bz-[Nle]KKR-aldehyde)
1.7 | CCCC[C@H](NC(=O)c1ccccc1)C(=O)N[C@@H](CCCCN)C(=O)N[C@@H](CCC(N)=O)C(=O)N[C@H](C=O)CCCNC(=N)N (Bz-[Nle]KQR-aldehyde)
110 | CCCC[C@H](NC(=O)c1ccccc1)C(=O)N[C@@H](CCCCN)C(=O)N[C@@H](CCCNC(=N)N)C(=O)N[C@H](C=O)Cc1ccccc1 (Bz-[Nle]KRF-aldehyde)
43.1 | CCCC[C@H](NC(=O)c1ccccc1)C(=O)N[C@@H](CCCCN)C(=O)N[C@@H](CCCNC(=N)N)C(=O)N[C@H](C=O)Cc1cnc[nH]1 (Bz-[Nle]KRH-aldehyde)
57.7 | CCCC[C@H](NC(=O)c1ccccc1)C(=O)N[C@@H](CCCCN)C(=O)N[C@@H](CCCNC(=N)N)C(=O)N[C@H](C=O)CCCCN (Bz-[Nle]KRK-aldehyde)
4.1 | CCCC[C@H](NC(=O)c1ccccc1)C(=O)N[C@@H](CCCCN)C(=O)N[C@@H](CCCNC(=N)N)C(=O)N[C@H](C=O)CCCNC(=N)N (Bz-[Nle]KRR-aldehyde)

target: Protease (Human immunodeficiency virus 1, UniProt Q9YQ12); assay: Inhibition of HIV1 protease
Sequence (Q9YQ12 whole entry): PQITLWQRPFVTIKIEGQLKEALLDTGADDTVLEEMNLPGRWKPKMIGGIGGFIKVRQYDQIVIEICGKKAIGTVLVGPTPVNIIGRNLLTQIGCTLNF

Ki [nM] | SMILES
0.05 | O=C1N(Cc2ccc3ccccc3c2)[C@H](Cc2ccccc2)[C@H](O)[C@@H](O)[C@@H](Cc2ccccc2)N1Cc1ccc2ccccc2c1
3.2 | CC1(C)S[C@H]([C@H](NC(=O)Cc2ccccc2)C(=O)NCc2ccccc2)N[C@H]1C(=O)N[C@H](Cc1ccccc1)[C@H](O)CC(=O)NCc1nc2ccccc2[nH]1
1100 | CC(C)[C@H](NC(=O)N(C)Cc1ccccn1)C(=O)NC(Cc1ccccc1)[C@H](O)[C@H](O)[C@H](Cc1ccccc1)NC(=O)[C@@H](NC(=O)N(C)Cc1ccccn1)C(C)C (stereo partly specified)
437 | COC(=O)[C@@H](NC(=O)[C@@H](NC(=O)[C@H](C)N1CCC([C@H](C)NC(=O)[C@H](C)N)=C[C@@H](Cc2ccccc2)C1)C(C)C)C(C)C
1100 | CC(=O)N[C@H](C(=O)N[C@H](C(=O)N[C@@H](CC(C)C)[C@@H](O)CC(=O)N[C@@H](C)C(=O)N[C@@H](CC(C)C)C(O)CC(=O)O)C(C)C)C(C)C (single isomer, unassigned) [ACETYLPEPSTATIN]
